Data published in US20260184662A1, “COMPOSITE OF ACID AND SALT, AND PREPARATION METHOD THEREFOR” (NANJING NUTRABUILDING BIO-TECH CO., LTD., priority 2022, published 2026).

Assay: Determination of moisture contents with KF moisture meter at different time points
Assay type: physicochemical
Conditions: temperature 23° C., humidity 92.5%
Description: For R-3-hydroxybutyric acid, potassium R-3-hydroxybutyrate, mixture of R-3-hydroxybutyric acid and potassium R-3-hydroxybutyrate, and R-3-hydroxybutyric acid·potassium R-3-hydroxybutyrate complex of Example 1, under a certain condition, KF moisture meter was used to determine the moisture contents at different time points.
For 3-hydroxybutyric acid, potassium 3-hydroxybutyrate, mixture of 3-hydroxybutyric acid and potassium 3-hydroxybutyrate, and 3-hydroxybutyric acid·potassium 3-hydroxybutyrate complex of Example 7, under a certain condition, KF moisture meter was used to determine the moisture contents at different time points.
For S-3-hydroxybutyric acid, potassium S-3-hydroxybutyrate, mixture of S-3-hydroxybutyric acid and potassium S-3-hydroxybutyrate, and S-3-hydroxybutyric acid·potassium S-3-hydroxybutyrate complex of Example 13, under a certain condition, KF moisture meter was used to determine the moisture contents at different time points.
For R-3-hydroxybutyric acid, calcium R-3-hydroxybutyrate, mixture of R-3-hydroxybutyric acid and calcium R-3-hydroxybutyrate, and R-3-hydroxybutyric acid·calcium R-3-hydroxybutyrate complex of Example 19, under a certain condition, KF moisture meter was used to determine the moisture contents at different time points.
For 3-hydroxybutyric acid, calcium 3-hydroxybutyrate, mixture of 3-hydroxybutyric acid and calcium 3-hydroxybutyrate, and 3-hydroxybutyric acid·calcium 3-hydroxybutyrate complex of Example 25, under a certain condition, KF moisture meter was used to determine the moisture contents at different time points.
For S-3-hydroxybutyric acid, calcium S-3-hydroxybutyrate, mixture of S-3-hydroxybutyric acid and calcium S-3-hydroxybutyrate, and S-3-hydroxybutyric acid·calcium S-3-hydroxybutyrate complex of Example 31, under a certain condition, KF moisture meter was used to determine the moisture contents at different time points.
For R-3-hydroxybutyric acid, magnesium R-3-hydroxybutyrate, mixture of R-3-hydroxybutyric acid and magnesium R-3-hydroxybutyrate, and R-3-hydroxybutyric acid·magnesium R-3-hydroxybutyrate complex of Example 37, under a certain condition, KF moisture meter was used to determine the moisture contents at different time points.
For 3-hydroxybutyric acid, magnesium 3-hydroxybutyrate, mixture of 3-hydroxybutyric acid and magnesium 3-hydroxybutyrate, and 3-hydroxybutyric acid·magnesium 3-hydroxy butyrate complex of Example 43, under a certain condition, KF moisture meter was used to determine the moisture contents at different time points.
For S-3-hydroxybutyric acid, magnesium S-3-hydroxybutyrate, mixture of S-3-hydroxybutyric acid and magnesium S-3-hydroxybutyrate, and S-3-hydroxybutyric acid·magnesium S-3-hydroxybutyrate complex of Example 49, under a certain condition, KF moisture meter was used to determine the moisture contents at different time points.
For R-3-hydroxypentanoic acid, sodium R-3-hydroxypentanoate, mixture of R-3-hydroxypentanoic acid and sodium R-3-hydroxypentanoate, and R-3-hydroxypentanoic acid·sodium R-3-hydroxypentanoate complex of Example 55, under a certain condition, KF moisture meter was used to determine the moisture contents at different time points.
For 3-hydroxypentanoic acid, sodium 3-hydroxypentanoate, mixture of 3-hydroxypentanoic acid and sodium 3-hydroxypentanoate, and 3-hydroxypentanoic acid·sodium 3-hydroxypentanoate complex of Example 61, under a certain condition, KF moisture meter was used to determine the moisture contents at different time points.
For S-3-hydroxypentanoic acid, sodium S-3-hydroxypentanoate, mixture of S-3-hydroxypentanoic acid and sodium S-3-hydroxypentanoate, and S-3-hydroxypentanoic acid·sodium S-3-hydroxypentanoate complex of Example 67, under a certain condition, KF moisture meter was used to determine the moisture contents at different time points.

Structure (SMILES) | moisture content (%) (30 min) | moisture content (%) (1 h) | moisture content (%) (2 h) | moisture content (%) (4 h) | moisture content (%) (6 h) | moisture content (%) (7 h) | moisture content (%) (11 h) | moisture content (%) (22 h)
CC(O)CC(=O)O (stereo not shown) [3-hydroxybutyric acid] | 1.32% | 2.37% | 4.15% | 6.59% | 9.68% | 10.71% | 17.33% | 33.51%
CCC(O)CC(=O)O (stereo not shown) [3-hydroxypentanoic acid] | 1.10% | 1.98% | 3.46% | 5.49% | 8.07% | 8.93% | 14.44% | 27.93%
C[C@H](O)CC(=O)[O-].C[C@H](O)CC(=O)[O-].[Ca+2] [Calcium S-3-hydroxybutyrate, calcium S-3-hydroxybutyrate] | 0.88% | 1.92% | 2.25% | 4.18% | 5.24% | 6.25% | 10.34% | 17.55%
C[C@H](O)CC(=O)[O-].C[C@H](O)CC(=O)[O-].[Mg+2] [Magnesium S-3-hydroxybutyrate, magnesium S-3-hydroxybutyrate] | 0.88% | 1.28% | 2.43% | 4.22% | 6.37% | 8.24% | 12.35% | 18.54%
CC(O)CC(=O)[O-].[K+] (stereo not shown) [Potassium 3-hydroxybutyrate, potassium 3-hydroxybutyrate] | 1.14% | 1.93% | 3.22% | 4.98% | 7.77% | 8.34% | 16.82% | 32.86%
C[C@@H](O)CC(=O)[O-].[K+] [Potassium R-3-hydroxybutyrate, potassium R-3-hydroxybutyrate] | 1.04% | 1.91% | 3.19% | 4.93% | 7.65% | 8.24% | 16.72% | 32.68%
C[C@H](O)CC(=O)[O-].[K+] [Potassium S-3-hydroxybutyrate, potassium S-3-hydroxybutyrate] | 1.06% | 1.92% | 3.22% | 4.97% | 7.55% | 8.34% | 16.82% | 32.75%
C[C@@H](O)CC(=O)O [R-3-hydroxybutyric acid] | 1.13% | 2.25% | 3.96% | 6.46% | 9.52% | 10.56% | 17.22% | 33.34%
